Results published in patent US12636285B2 (ViiV Healthcare Company, priority 2019, dated 2026).
Values joined by “and” are separate entries in the source; they are usually repeats but may differ in a detail not shown here. Equal entries are not always repeated. Where two headings read alike, the source gives them in different places.

Columns and labels:
[1] = cited from earlier work
[2] = Mass balance studies, single-dose oral [14C] drug; type: in vivo, human; settings: single-dose oral [14C] drug
[3] = Genotoxicity: bacterial reverse mutation assay, mouse lymphoma assay, in vivo rodent micronucleus assay
HIV-1111B = assay: Antiviral activity in an acutely infected T-cell line; type: cell-based, HIV-1; settings: Human immunodeficiency virus 1, read-out: median EC50
[4] = Binding to human plasma proteins; type: in vitro ADME; settings: read-out: % Bound to human plasma proteins (converted)
[5] = Pharmacokinetic properties of the components of the Combination (Table 6); set-up: species or system human; settings: in vivo
[6] = Fertility studies in rats; type: in vivo, rat; settings: up to 400 mg/kg/day, dose with maternal toxicity
[7] = in vivo
Excerpt: The observed hepatocellular findings in mice may be rodent specific.

[8] = tested on: HIV-1 group M (subtypes A, B, C, D, F, G, and H) primary isolates; assay: Antiviral activity against group M primary isolates; type: cell-based; settings: Human immunodeficiency virus 1, read-out: EC50 values
[9] = tested on: HIV-1 with NNRTI substitutions; assay: Cross-resistance of rilpivirine, NNRTI substitutions; type: cell-based
group O primary isolates = assay: Antiviral activity against group O primary isolates; type: cell-based, HIV-1; settings: Human immunodeficiency virus 1, read-out: EC50 values
[10] = Pharmacokinetics in specific populations (renal, hepatic impairment, UGT1A1 genotype); type: in vivo, human; settings: for exposure higher than matched controls: n=8
Excerpt: No dosage adjustment is necessary for patients with mild to severe renal impairment (not on dialysis).
No dosage adjustment is necessary for patients with mild to moderate hepatic impairment (Child-Pugh Score A or B).
No dose adjustment is required in subjects with UGT1A1 polymorphisms.

[11] = Phase 3 clinical trials of oral rilpivirine (rash); type: in vivo, human
Excerpt: According to another aspect of the main embodiment, precautions are taken prior to and during treatment with the Combination. Severe skin and hypersensitivity reactions have been reported during postmarketing experience with oral rilpivirine-containing regimens including cases of Drug Reaction with Eosinophilia and Systemic Symptoms (DRESS). While some skin reactions were accompanied by constitutional symptoms such as fever, other skin reactions were associated with organ dysfunctions, including elevations in hepatic serum biochemistries.

[12] = Multiple-dose pharmacokinetics after monthly IM injections, population PK post-hoc estimates FLAIR and ATLAS; type: in vivo, human; settings: 600-mg monthly IM injection
[13] = tested on: human cellular DNA polymerases α, β, and γ; assay: Inhibition of human cellular DNA polymerases; type: biochemical
[14] = Lactating rats, exposure of pups through milk; type: in vivo, rat; settings: administered to lactating rats
Excerpt: The Centers for Disease Control and Prevention recommends that HIV-1-infected mothers in the United States not breastfeed their infants to avoid risking postnatal transmission of HIV-1 infection. It is not known if the components of the Combination are present in human breast milk, affect human milk production, or have effects on the breastfed infant. […] Animal Data: Cabotegravir: […] Rilpivirine: […]

[15] = QT crossover trial of oral rilpivirine in healthy adults; type: in vivo, human
Excerpt: The maximum mean time-matched (95% upper confidence bound) differences in QTcF interval from placebo after baseline correction was 2.0 (5.0) msec (i.e., below the threshold of clinical concern).

HIV-1 = assay: Antiviral activity in combination with other antivirals, cell culture; type: cell-based

Cc1cc(/C=C/C#N)cc(C)c1Nc1ccnc(Nc2ccc(C#N)cc2)n1 [Rilpivirine, 4-[[4-[[4-[(E)-2-cyanoethenyl]-2,6-dimethylphenyl]amino]-2-pyrimidinyl]amino]benzonitrile]
prevalence of birth defects in live births ([1]; first trimester exposure to rilpivirine-containing regimens): 0.9% | prevalence of birth defects in live births ([1]; second/third trimester exposure to rilpivirine-containing regimens): 1.24% | % of dose excreted as total 14C in feces [2]: 85% | % of dose excreted as total 14C in urine [2]: 6% | % of dose excreted as unchanged drug in feces [2]: (26) % | % of dose excreted as unchanged drug in urine [2]: (<1) % | genotoxicity [3]: not genotoxic | EC50 (HIV-1111B): 0.73 nM and 0.00027 µg/mL | fraction unbound [4]: 0.003 | Tmax ([5]; human, im, intramuscular injection, read-out: Tmax, median (converted)): 3 to 4 days | half-life ([5]; human, im, intramuscular injection, read-out: t1/2 (absorption rate limited), mean): 91 to 196 days | Major route of elimination [5]: Metabolism | Metabolic pathways [5]: CYP3A | effects on mating or fertility [6]: no effects on mating or fertility | carcinogenicity ([7]; mouse): positive for hepatocellular neoplasms | carcinogenicity ([7]; rat): not carcinogenic | EC50 [8]: 0.07 nM to 1.01 nM and 3e-05 µg/mL to 0.00037 µg/mL | susceptibility with K103N substitution by itself [9]: did not show reduced susceptibility | EC50 (group O primary isolates): 2.88 nM to 8.45 nM and 0.00106 µg/mL to 0.0031 µg/mL | exposure higher than matched controls ([10]; mild hepatic impairment (Child-Pugh Score A)): 47% | exposure higher than matched controls ([10]; moderate hepatic impairment (Child-Pugh Score B)): 5% | effect of mild renal impairment on exposure ([10]; oral rilpivirine, population pharmacokinetic analyses): no clinically relevant effect | Grade 4 rash [11]: no Grade 4 rash was reported | treatment-related rashes with at least Grade 2 severity, subjects [11]: 3% | Ctrough, geometric mean [12]: 82.2 ng/mL | AUC ([12]; human, in vivo, read-out: AUCtau, geometric mean): 65600 ng·h/mL | Cmax ([12]; human, in vivo, read-out: Cmax, geometric mean): 116 ng/mL | inhibition of human cellular DNA polymerases α, β, and γ [13]: does not inhibit | presence in milk [14]: present in milk | maximum mean time-matched (95% upper confidence bound) difference in QTcF interval from placebo after baseline correction ([15]; oral 25 mg once daily, steady state): 2.0 (5.0) msec | maximum mean time-matched (95% upper confidence bound) difference in QTcF interval from placebo after baseline correction ([15]; oral 75 mg once daily): 10.7 (15.3) msec | maximum mean time-matched (95% upper confidence bound) difference in QTcF interval from placebo after baseline correction ([15]; oral 300 mg once daily): 23.3 (28.4) msec | antiviral activity combined with listed NNRTIs, NRTIs, protease inhibitors, enfuvirtide, maraviroc, or raltegravir (HIV-1): not antagonistic
